Values after ≈ are worked out from the molar mass of the structure shown.

A word on the MIC: it is the smallest concentration in the dilution series that meets the test's criterion for growth inhibition.

Holding throughout (format): functional
Assay [1] concerns Acinetobacter baumannii. As to the kind of experiment: Antibacterial activity against Acinetobacter baumannii assessed as bacterial growth inhibition incubated for 24 hrs by broth microdilution method.
Assay [2] has as its system Escherichia coli. As to the kind of experiment: Antibacterial activity against Escherichia coli assessed as bacterial growth inhibition incubated for 24 hrs by broth microdilution method. On the technique in general: Broth dilution looks for growth in wells or tubes with falling amounts of substance.
Assay [3] relates to Acinetobacter baumannii. As to the kind of experiment: Induction of drug resistance against Acinetobacter baumannii assessed as fold increase in MIC after 20 passages measured for 20 days by sequential passaging method. The conditions noted are these: time 20.0 day.
In assay [4] the test system is Escherichia coli. In words: Antibacterial activity against Escherichia coli ATCC 25922 assessed as bacterial growth inhibition incubated for 24 hrs by broth microdilution method.
The test system of assay [5] is Staphylococcus aureus. As to the kind of experiment: Antibacterial activity against Staphylococcus aureus ATCC 25923 assessed as bacterial growth inhibition incubated for 24 hrs by broth microdilution method.
Assay [6] deals with Klebsiella pneumoniae. As to the kind of experiment: Antibacterial activity against Klebsiella pneumoniae assessed as bacterial growth inhibition incubated for 24 hrs by broth microdilution method.
Assay [7] concerns Staphylococcus aureus. In words: Antibacterial activity against methicillin-resistant Staphylococcus aureus assessed as bacterial growth inhibition incubated for 24 hrs by broth microdilution method.
The subject of assay [8] is Staphylococcus aureus. As to the kind of experiment: Antibacterial activity against Staphylococcus aureus ATCC 29213 assessed as bacterial growth inhibition incubated for 24 hrs by broth microdilution method.
For assay [9], the system named is Staphylococcus aureus. In words: Antibacterial activity against Staphylococcus aureus assessed as bacterial growth inhibition incubated for 24 hrs by broth microdilution method.
Assay [10] relates to Pseudomonas aeruginosa. In words: Antibacterial activity against Pseudomonas aeruginosa assessed as bacterial growth inhibition incubated for 24 hrs by broth microdilution method.
For assay [11], the system named is Enterococcus faecalis. As to the kind of experiment: Antibacterial activity against Enterococcus faecalis assessed as bacterial growth inhibition incubated for 24 hrs by broth microdilution method.
Assay [12] has as its system Pseudomonas aeruginosa. In words: Antibacterial activity against Pseudomonas aeruginosa ATCC 27853 assessed as bacterial growth inhibition incubated for 24 hrs by broth microdilution method.

Regarding `CCn1cc(C(=O)O)c(=O)c2cc(F)c(N3CCNCC3)cc21` [NORFLOXACIN], the MIC was found to be 6 µM (≈ 1.92 µg/mL) in assay [1]; 25 µM (≈ 7.98 µg/mL) in assay [2]; 3 µM (≈ 0.958 µg/mL) in assay [4]; 2 µM (≈ 0.639 µg/mL) in assay [5]; 6 µM (≈ 1.92 µg/mL) in [6]; 50 µM (≈ 16 µg/mL) in [7]. For the same molecule, the MIC in assay [8] worked out at 6 µM (≈ 1.92 µg/mL); in assay [9], 3 µM (≈ 0.958 µg/mL); in assay [10] it was 1 µM (≈ 0.319 µg/mL); in assay [11], 100 µM (≈ 31.9 µg/mL); in assay [12] it was 3 µM (≈ 0.958 µg/mL). For the same molecule, in [3], the fold change (FC) came to 31.
Consider `CN(CCO)c1nccc(-n2cncn2)n1`, for which the minimum inhibitory concentration (MIC) in [1] is 1360 µM (≈ 300 µg/mL); in assay [2] it was 1160 µM (≈ 256 µg/mL); in assay [4], 582 µM (≈ 128 µg/mL); in assay [5], 1160 µM (≈ 256 µg/mL); in assay [6], 1160 µM (≈ 256 µg/mL); in [7], 1160 µM (≈ 256 µg/mL). Besides, the minimal inhibitory concentration (MIC) turned out to be 1160 µM (≈ 256 µg/mL) in assay [8]; 1160 µM (≈ 256 µg/mL) in [9]; 291 µM (≈ 64.1 µg/mL) in assay [10]; 582 µM (≈ 128 µg/mL) in assay [11]; 1160 µM (≈ 256 µg/mL) in assay [12].
Regarding `Nc1ccc(S(=O)(=O)Nc2ncccn2)cc1` [SULFADIAZINE], the MIC was 64 µM (≈ 16 µg/mL) in assay [1]; 64 µM (≈ 16 µg/mL) in assay [2]; 64 µM (≈ 16 µg/mL) in assay [4]; 129 µM (≈ 32.3 µg/mL) in [5]; 1020 µM (≈ 256 µg/mL) in assay [6]; 256 µM (≈ 64.1 µg/mL) in [7]. In addition, the minimal inhibitory concentration (MIC) worked out at 54 µM (≈ 13.5 µg/mL) in assay [8]; 256 µM (≈ 64.1 µg/mL) in assay [9]; 31 µM (≈ 7.76 µg/mL) in assay [10]; 64 µM (≈ 16 µg/mL) in [11]; 64 µM (≈ 16 µg/mL) in assay [12].
As for `Cc1cn(-c2ccnc(N(CCO)CCO)n2)cn1`, the MIC in [1] turned out to be 973 µM (≈ 256 µg/mL); in [2], 973 µM (≈ 256 µg/mL); in assay [4], 1950 µM (≈ 512 µg/mL); in assay [5], 973 µM (≈ 256 µg/mL); in [6], 973 µM (≈ 256 µg/mL); in assay [7], 973 µM (≈ 256 µg/mL). Further, the minimal inhibitory concentration (MIC) in assay [8], in assay [9], in assay [10], in assay [11] and in assay [12] was 973 µM (≈ 256 µg/mL) each time.
Regarding `CCCc1nccn1-c1ccnc(N(CCO)CCO)n1`, the minimum inhibitory concentration (MIC) in assay [1] was determined as 879 µM (≈ 256 µg/mL); in [2], 879 µM (≈ 256 µg/mL); in assay [4], 879 µM (≈ 256 µg/mL); in assay [5], 879 µM (≈ 256 µg/mL); in [6], 379 µM (≈ 110 µg/mL); in assay [7] it was 879 µM (≈ 256 µg/mL). Besides, the MIC in assay [8], in [9], in assay [10], in [11] and in assay [12] was 879 µM (≈ 256 µg/mL) each time.
`OCCN(CCO)c1nccc(-n2cnc3ccccc32)n1`: the MIC worked out at 856 µM (≈ 256 µg/mL) in assay [1]; 214 µM (≈ 64.1 µg/mL) in assay [2]; 856 µM (≈ 256 µg/mL) in assay [4]; 107 µM (≈ 32 µg/mL) in assay [5]; 428 µM (≈ 128 µg/mL) in assay [6]; 856 µM (≈ 256 µg/mL) in assay [7]. For the same molecule, the MIC came out at 856 µM (≈ 256 µg/mL) in [8]; 214 µM (≈ 64.1 µg/mL) in [9]; 214 µM (≈ 64.1 µg/mL) in assay [10]; 107 µM (≈ 32 µg/mL) in assay [11]; 107 µM (≈ 32 µg/mL) in assay [12].
